# Reference: patent publication US4985416A, “Platinum complexes of azodiazonium dyes as anti-tumor agents” (priority 1989, dated 1991)
# Read-outs that look alike come from different tables or passages of the source.
# Experiments:
# Lewis Lung carcinoma = assay: Anti-metastatic activity: lung metastases from Lewis Lung carcinoma; format: in vivo, mice; details: day 7, lungs day 20, control 14
# Protocol: (§1) Anti-tumor activity of the complex prepared as described above was determined in vivo in mice by comparative tests against Fast Black dye alone and against Cis-diamminedichloroplatinum (CDDP) using the following procedure Two different solid tumor cell lines were employed, Lewis Lung and FSaII, 2×10^6 tumor cells being implanted i.m. into the legs of male C57BL/6J and C3H/He mice 8 to 10 weeks of age, respectively. The drugs were administered i.p. on day 7 after tumor implantation (when tumors were about 100 mm^3 in volume), in solution (0.5%) in 0.9% phosphate-buffered saline as carrier. Tumor growth delay is reported in Table I below as the difference in number of days for the treated tumors to reach 500 mm^3 in volume and the number of days required for untreated control tumors to reach the same volume (n=14 in each group). Tumor volume was calculated as a hemiellipsoid. In the control animals, tumors reached the specified volume in 12-14 days.
# Anti-metastatic activity was determined by implanting Lewis Lung carcinoma cells in the legs of mice as described above, administering drugs in the doses indicated in Table II below, i.p. on day 7 after implantation and removing the lungs on day 20 followed by counting metastases. Control mice received no drug (n=14 in each group).
# FSaII fibrosarcoma cells [1] = assay: Enhancement of killing effect of heat treatment (hyperthermia) in vivo: growth delay; set-up: species or system mice
# Protocol: FSaII fibrosarcoma cells (2×10^6 FSaII cells) were implanted in the legs of mice: the drug was administered i.p. when the tumor had grown to approximately 50 mm^3 in volume, using 0.9% phosphate buffered saline as carrier, as described above in the doses shown in Table 3 below. Fifteen minutes later radiation was delivered locally to the tumor bearing limb as a single dose of 10, 20, or 30 gray as indicated in the table. No anesthetic was used. The growth of each tumor was measured thrice weekly until it reached a volume of 500 mm^3. Each treatment group had 7 animals and the procedure was repeated 3 times. Tumor volume was calculated as a hemiellipsoid, and in the untreated control animals, tumors reached the specified volume in 14.0 days. The delay is reported in terms of the mean number of additional days beyond the control required for the tumors in each group to reach the specified volume. The results were as follows:
# The complex was also found to be effective in enhancing the killing effect of heat treatment (hyperthermia) in vivo. The procedure described in the preceding paragraph was carried out except that there was substituted for the single radiation dose a heat treatment by immersion of the tumor-bearing limb in a water bath at 44° C. for 30 minutes to raise the tumor temperature to 43° C. The means number of days delay (n=14) was as follows: […]
# Lewis Lung = assay: Tumor growth delay in vivo, Lewis Lung solid tumor; set-up: species or system mice (C57BL/6J); details: day 7, to reach 500 mm^3
# Protocol: as §1
# FSaII = assay: Tumor growth delay in vivo, FSaII solid tumor; set-up: species or system mice (C3H/He); details: day 7, to reach 500 mm^3
# Protocol: as §1
# FSaII fibrosarcoma cells [2] = format: in vivo, mice; details: 300 mg/kg i.p.
# Protocol: Fifteen minutes later radiation was delivered locally to the tumor bearing limb as a single dose of 10, 20, or 30 gray as indicated in the table. No anesthetic was used. The growth of each tumor was measured thrice weekly until it reached a volume of 500 mm^3. […] The delay is reported in terms of the mean number of additional days beyond the control required for the tumors in each group to reach the specified volume.
# carcinoma cells = details: in words; Bernal et al.; cited from earlier work
# EMT6 cells = assay: Entry of platinum into EMT6 cells; format: cell-based; details: in words
smiles,measurement,setting,value
"N.N.[Cl][Pt][Cl] [CDDP, Cis-diamminedichloroplatinum (II)]",Mean No. of Metastases per Animal,Lewis Lung carcinoma; 10 mg/kg i.p.,10.7 Metastases per Animal
same,Mean No. Days Delay,"FSaII fibrosarcoma cells [1]; 5 mg/kg, heat 30 min at 43° C., heat alone 1.4",5.9 days
same,Mean No. Days Delay,"FSaII fibrosarcoma cells [1]; 5 mg/kg, no heat",4.4 days
same,Mean No. Days Delay (Lewis Lung),Lewis Lung; 5 mg/kg i.p.,< 1 days
same,Mean No. Days Delay (Lewis Lung),Lewis Lung; 10 mg/kg i.p.,< 1 days
same,Mean No. Days Delay (FSaII),FSaII; 5 mg/kg i.p.,4.4 days
same,Mean No. Days Delay (FSaII),FSaII; 10 mg/kg i.p.,8.0 days
COc1cc([N+]#N)c(OC)cc1N=Nc1ccc([N+](=O)[O-])cc1 [Fast Black],Mean No. of Metastases per Animal,Lewis Lung carcinoma; 50 mg/kg i.p.,13.3 Metastases per Animal
same,Mean No. of Metastases per Animal,Lewis Lung carcinoma; 100 mg/kg i.p.,12.3 Metastases per Animal
same,Mean No. of Metastases per Animal,Lewis Lung carcinoma; 250 mg/kg i.p.,11.0 Metastases per Animal
same,Mean No. Days Delay,"FSaII fibrosarcoma cells [1]; 300 mg/kg, heat 30 min at 43° C., heat alone 1.4",4.4 days
same,Mean No. Days Delay,"FSaII fibrosarcoma cells [1]; 300 mg/kg, no heat",2.7 days
same,Mean No. Days Delay (Lewis Lung),Lewis Lung; 250 mg/kg i.p.,2.0 days
same,Mean No. Days Delay (FSaII),FSaII; 250 mg/kg i.p.,2.7 days
same,Mean No. Days Delay,FSaII fibrosarcoma cells [2]; 0 Gray,3.0 days
same,Mean No. Days Delay,"FSaII fibrosarcoma cells [2]; 10 Gray 15 min later, radiation alone 1.8",7.0 days
same,Mean No. Days Delay,"FSaII fibrosarcoma cells [2]; 20 Gray 15 min later, radiation alone 6.3",12.6 days
same,Mean No. Days Delay,"FSaII fibrosarcoma cells [2]; 30 Gray 15 min later, radiation alone 8.8",16.2 days
COC(=O)c1ccccc1-c1c2ccc(=N)cc-2oc2cc(N)ccc12 [Rhodamine 123],selective toxicity toward carcinoma cells,carcinoma cells,selectively toxic toward carcinoma cells
"[Cl][Pt-2]([Cl])([Cl])[Cl].[K+].[K+] [potassium tetracloroplatinate, potassium tetrachloroplatinate]",entry of platinum into the cells,EMT6 cells,only very poor entry of platinum into the cells
